Assay results from US20230085307A1, “PYRIDAZINONE COMPOUND AND HERBICIDE” (NISSAN CHEMICAL CORPORATION, priority 2019, published 2023).

Legend:
oval-leafed pondweed = test: Test Example 1: herbicidal activity, application before weed generation under submerged conditions (Table 16, symbol C); type: in vivo, oval-leafed pondweed (Monochoria vaginalis)
Summary of the method: (§1)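 Emulsion formulation, water-diluted to set dose, was put onto the flooded surface (4 cm depth, alluvial soil) the same day weeds were sown and 2.5-leaf rice transplanted. After 3 weeks at 25-30 °C under glass, each species was rated 0 (≤5% kill) to 5 (≥90% kill).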

southern crabgrass [1] = test: Test Example 4: herbicidal effect by soil treatment (Table 19, symbol F); type: in vivo, southern crabgrass (Digitaria ciliaris); details: amount of applied herbicide 320 g/ha
Summary of the method: (§2)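 Herbicidal effect was rated 3 weeks after treatment, using the scoring criteria of an earlier test. The compound, formulated as an emulsion and diluted in water to a set herbicide amount, had been sprayed uniformly on soil over freshly sown seeds. Growth took place in a greenhouse at 25° C. to 30° C.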

redroot pigweed [2] = test: Test Example 4: herbicidal effect by soil treatment (Table 19, symbol N); type: in vivo, redroot pigweed (Amaranthus retroflexus); details: amount of applied herbicide 320 g/ha
Summary of the method: as §2

barnyard grass [3] = test: Test Example 4: herbicidal effect by soil treatment (Table 19, symbol H); type: in vivo, barnyard grass (Echinochloa crus-galli); details: amount of applied herbicide 320 g/ha
Summary of the method: as §2

persian speedwell [4] = test: Test Example 4: herbicidal effect by soil treatment (Table 19, symbol R); type: in vivo, Persian speedwell (Veronica persica); details: amount of applied herbicide 320 g/ha
Summary of the method: as §2

Italian ryegrass [5] = test: Test Example 4: herbicidal effect by soil treatment (Table 19, symbol K); type: in vivo, Italian ryegrass (Lolium multiflorum); details: amount of applied herbicide 320 g/ha
Summary of the method: as §2

chickweed [6] = test: Test Example 4: herbicidal effect by soil treatment (Table 19, symbol P); type: in vivo, common chickweed (Stellaria media); details: amount of applied herbicide 320 g/ha
Summary of the method: as §2

velvetleaf [7] = test: Test Example 4: herbicidal effect by soil treatment (Table 19, symbol M); type: in vivo, velvetleaf (Abutilon theophrasti); details: amount of applied herbicide 320 g/ha
Summary of the method: as §2

windgrass [8] = test: Test Example 4: herbicidal effect by soil treatment (Table 19, symbol L); type: in vivo, windgrass (Apera spica-venti); details: amount of applied herbicide 320 g/ha
Summary of the method: as §2

barnyard grass [9] = test: Test Example 3: herbicidal effect by foliage application, Wagner pot (Table 18, symbol H); type: in vivo, barnyard grass (Echinochloa crus-galli)
Summary of the method: (§3)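 Plants were sown in alluvial soil held under 0.1–0.5 cm standing water and grown 14 days in a greenhouse at 25–30 °C. An emulsifiable formulation, water-diluted to the set dose, was then sprayed onto the foliage, and effects were scored three weeks later using previously defined criteria.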

Chinese sprangletop = test: Test Example 3: herbicidal effect by foliage application, Wagner pot (Table 18, symbol D); type: in vivo, chinese sprangletop (Leptochloa chinensis)
Summary of the method: as §3

late watergrass = test: Test Example 1: herbicidal activity, application before weed generation under submerged conditions (Table 16, symbol A); type: in vivo, late watergrass (Echinochloa oryzicola)
Summary of the method: as §1

Japanese bulrush = test: Test Example 1: herbicidal activity, application before weed generation under submerged conditions (Table 16, symbol B); type: in vivo, Japanese bulrush (Schoenoplectus juncoides)
Summary of the method: as §1

rice flat sedge = test: Test Example 3: herbicidal effect by foliage application, Wagner pot (Table 18, symbol E); type: in vivo, rice flat sedge (Cyperus iria)
Summary of the method: as §3

blackgrass [10] = test: Test Example 4: herbicidal effect by soil treatment (Table 19, symbol J); type: in vivo, blackgrass (Alopecurus myosuroides); details: amount of applied herbicide 320 g/ha
Summary of the method: as §2

green foxtail [11] = test: Test Example 4: herbicidal effect by soil treatment (Table 19, symbol G); type: in vivo, green foxtail (Setaria viridis); details: amount of applied herbicide 320 g/ha
Summary of the method: as §2

wild oat [12] = test: Test Example 4: herbicidal effect by soil treatment (Table 19, symbol I); type: in vivo, wild oat (Avena fatua); details: amount of applied herbicide 320 g/ha
Summary of the method: as §2

lambsquarters [13] = test: Test Example 4: herbicidal effect by soil treatment (Table 19, symbol O); type: in vivo, lambsquarters (Chenopodium album); details: amount of applied herbicide 320 g/ha
Summary of the method: as §2

lambsquarters [14] = test: Test Example 5: herbicidal effect by foliage application, plastic box (Table 20, symbol O); type: in vivo, lambsquarters (Chenopodium album); details: amount of applied herbicide 320 g/ha; foliage application after 14-day growth; evaluated three weeks after application
Summary of the method: (§4)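 Foliar spray test: emulsion formulation diluted in water to a set application rate, sprayed onto 14-day-old plants raised in diluvial soil at 25° C to 30° C under glass. Both herbicidal effect and crop effect rated visually three weeks later.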

redroot pigweed [15] = test: Test Example 5: herbicidal effect by foliage application, plastic box (Table 20, symbol N); type: in vivo, redroot pigweed (Amaranthus retroflexus); details: amount of applied herbicide 320 g/ha; foliage application after 14-day growth; evaluated three weeks after application
Summary of the method: as §4

Italian ryegrass [16] = test: Test Example 5: herbicidal effect by foliage application, plastic box (Table 20, symbol K); type: in vivo, Italian ryegrass (Lolium multiflorum); details: amount of applied herbicide 320 g/ha; foliage application after 14-day growth; evaluated three weeks after application
Summary of the method: as §4

velvetleaf [17] = test: Test Example 5: herbicidal effect by foliage application, plastic box (Table 20, symbol M); type: in vivo, velvetleaf (Abutilon theophrasti); details: amount of applied herbicide 320 g/ha; foliage application after 14-day growth; evaluated three weeks after application
Summary of the method: as §4

southern crabgrass [18] = test: Test Example 5: herbicidal effect by foliage application, plastic box (Table 20, symbol F); type: in vivo, southern crabgrass (Digitaria ciliaris); details: amount of applied herbicide 320 g/ha; foliage application after 14-day growth; evaluated three weeks after application
Summary of the method: as §4

persian speedwell [19] = test: Test Example 5: herbicidal effect by foliage application, plastic box (Table 20, symbol R); type: in vivo, Persian speedwell (Veronica persica); details: amount of applied herbicide 320 g/ha; foliage application after 14-day growth; evaluated three weeks after application
Summary of the method: as §4

green foxtail [20] = test: Test Example 5: herbicidal effect by foliage application, plastic box (Table 20, symbol G); type: in vivo, green foxtail (Setaria viridis); details: amount of applied herbicide 320 g/ha; foliage application after 14-day growth; evaluated three weeks after application
Summary of the method: as §4

barnyard grass [21] = test: Test Example 5: herbicidal effect by foliage application, plastic box (Table 20, symbol H); type: in vivo, barnyard grass (Echinochloa crus-galli); details: amount of applied herbicide 320 g/ha; foliage application after 14-day growth; evaluated three weeks after application
Summary of the method: as §4

windgrass [22] = test: Test Example 5: herbicidal effect by foliage application, plastic box (Table 20, symbol L); type: in vivo, windgrass (Apera spica-venti); details: amount of applied herbicide 320 g/ha; foliage application after 14-day growth; evaluated three weeks after application
Summary of the method: as §4

wild oat [23] = test: Test Example 5: herbicidal effect by foliage application, plastic box (Table 20, symbol I); type: in vivo, wild oat (Avena fatua); details: amount of applied herbicide 320 g/ha; foliage application after 14-day growth; evaluated three weeks after application
Summary of the method: as §4

chickweed [24] = test: Test Example 5: herbicidal effect by foliage application, plastic box (Table 20, symbol P); type: in vivo, common chickweed (Stellaria media); details: amount of applied herbicide 320 g/ha; foliage application after 14-day growth; evaluated three weeks after application
Summary of the method: as §4

blackgrass [25] = test: Test Example 5: herbicidal effect by foliage application, plastic box (Table 20, symbol J); type: in vivo, blackgrass (Alopecurus myosuroides); details: amount of applied herbicide 320 g/ha; foliage application after 14-day growth; evaluated three weeks after application
Summary of the method: as §4

[26] = amount of applied herbicide 320 g/ha

## COc1ccc(-c2sc3ccc(F)cc3c2-c2c(O)c(C)nn(C)c2=O)cc1Cl [2-370]
oval-leafed pondweed; 320 g/ha applied herbicide
  Herbicidal effect on C: oval-leafed pondweed (grade 0-5): 0 (Herbicidal rate of 5% or less (almost no effect))
Southern crabgrass [1]
  herbicidal effect, F: southern crabgrass: 0 (Herbicidal rate of 5% or less (almost no effect))
Redroot pigweed [2]
  herbicidal effect, N: redroot pigweed: 2 (Herbicidal rate of 20% or more and less than 40%)
Barnyard grass [3]
  herbicidal effect, H: barnyard grass: 0 (Herbicidal rate of 5% or less (almost no effect))
Persian speedwell [4]
  herbicidal effect, R: persian speedwell: 4 (Herbicidal rate of 70% or more and less than 90%)
Italian ryegrass [5]
  herbicidal effect, K: Italian ryegrass: 0 (Herbicidal rate of 5% or less (almost no effect))
Chickweed [6]
  herbicidal effect, P: chickweed: 3 (Herbicidal rate of 40% or more and less than 70%)
Velvetleaf [7]
  herbicidal effect, M: velvetleaf: 1 (Herbicidal rate of 5% or more and less than 20%)
Windgrass [8]
  herbicidal effect, L: windgrass: 0 (Herbicidal rate of 5% or less (almost no effect))
Barnyard grass [9]; [26]
  herbicidal effect on H: barnyard grass: 3 (Herbicidal rate of 40% or more and less than 70%)
Chinese sprangletop; [26]
  herbicidal effect on D: Chinese sprangletop: 2 (Herbicidal rate of 20% or more and less than 40%)
Late watergrass; 320 g/ha applied herbicide
  Herbicidal effect on A: late watergrass (grade 0-5): 3 (Herbicidal rate of 40% or more and less than 70%)
Japanese bulrush; 320 g/ha applied herbicide
  Herbicidal effect on B: Japanese bulrush (grade 0-5): 0 (Herbicidal rate of 5% or less (almost no effect))
Rice flat sedge; [26]
  herbicidal effect on E: rice flat sedge: 5 (Herbicidal rate of 90% or more (almost completely withered))
Blackgrass [10]
  herbicidal effect, J: blackgrass: 0 (Herbicidal rate of 5% or less (almost no effect))
Green foxtail [11]
  herbicidal effect, G: green foxtail: 0 (Herbicidal rate of 5% or less (almost no effect))
Wild oat [12]
  herbicidal effect, I: wild oat: 0 (Herbicidal rate of 5% or less (almost no effect))
Lambsquarters [13]
  herbicidal effect, O: lambsquarters: 4 (Herbicidal rate of 70% or more and less than 90%)

## COCOc1ccccc1-c1sc2c(Cl)cccc2c1-c1c(O)c(C)nn(C)c1=O [4-083]
oval-leafed pondweed; [26]
  Herbicidal effect, C: oval-leafed pondweed: 0 (Herbicidal rate of 5% or less (almost no effect))
Lambsquarters [14]
  Herbicidal effect by foliage application, O: lambsquarters: 1 (Herbicidal rate of 5% or more and less than 20%)
Southern crabgrass [1]
  Herbicidal effect by soil treatment, F: southern crabgrass: 0 (Herbicidal rate of 5% or less (almost no effect))
Redroot pigweed [15]
  Herbicidal effect by foliage application, N: redroot pigweed: 1 (Herbicidal rate of 5% or more and less than 20%)
Redroot pigweed [2]
  Herbicidal effect by soil treatment, N: redroot pigweed: 3 (Herbicidal rate of 40% or more and less than 70%)
Italian ryegrass [16]
  Herbicidal effect by foliage application, K: Italian ryegrass: 0 (Herbicidal rate of 5% or less (almost no effect))
Barnyard grass [3]
  Herbicidal effect by soil treatment, H: barnyard grass: 1 (Herbicidal rate of 5% or more and less than 20%)
Persian speedwell [4]
  Herbicidal effect by soil treatment, R: persian speedwell: 3 (Herbicidal rate of 40% or more and less than 70%)
Italian ryegrass [5]
  Herbicidal effect by soil treatment, K: Italian ryegrass: 0 (Herbicidal rate of 5% or less (almost no effect))
Velvetleaf [17]
  Herbicidal effect by foliage application, M: velvetleaf: 3 (Herbicidal rate of 40% or more and less than 70%)
Chickweed [6]
  Herbicidal effect by soil treatment, P: chickweed: 3 (Herbicidal rate of 40% or more and less than 70%)
Velvetleaf [7]
  Herbicidal effect by soil treatment, M: velvetleaf: 1 (Herbicidal rate of 5% or more and less than 20%)
Southern crabgrass [18]
  Herbicidal effect by foliage application, F: southern crabgrass: 3 (Herbicidal rate of 40% or more and less than 70%)
Windgrass [8]
  Herbicidal effect by soil treatment, L: windgrass: 0 (Herbicidal rate of 5% or less (almost no effect))
Persian speedwell [19]
  Herbicidal effect by foliage application, R: persian speedwell: 5 (Herbicidal rate of 90% or more (almost completely withered))
Barnyard grass [9]; 320 g/ha
  herbicidal effect on barnyard grass (H): 5 (Herbicidal rate of 90% or more (almost completely withered))
Chinese sprangletop; 320 g/ha
  herbicidal effect on Chinese sprangletop (D): 4 (Herbicidal rate of 70% or more and less than 90%)
Late watergrass; [26]
  Herbicidal effect, A: late watergrass: 3 (Herbicidal rate of 40% or more and less than 70%)
Green foxtail [20]
  Herbicidal effect by foliage application, G: green foxtail: 3 (Herbicidal rate of 40% or more and less than 70%)
Japanese bulrush; [26]
  Herbicidal effect, B: Japanese bulrush: 0 (Herbicidal rate of 5% or less (almost no effect))
Rice flat sedge; 320 g/ha
  herbicidal effect on rice flat sedge (E): 5 (Herbicidal rate of 90% or more (almost completely withered))
Barnyard grass [21]
  Herbicidal effect by foliage application, H: barnyard grass: 4 (Herbicidal rate of 70% or more and less than 90%)
Windgrass [22]
  Herbicidal effect by foliage application, L: windgrass: 4 (Herbicidal rate of 70% or more and less than 90%)
Green foxtail [11]
  Herbicidal effect by soil treatment, G: green foxtail: 0 (Herbicidal rate of 5% or less (almost no effect))
Wild oat [23]
  Herbicidal effect by foliage application, I: wild oat: 0 (Herbicidal rate of 5% or less (almost no effect))
Chickweed [24]
  Herbicidal effect by foliage application, P: chickweed: 5 (Herbicidal rate of 90% or more (almost completely withered))
Wild oat [12]
  Herbicidal effect by soil treatment, I: wild oat: 0 (Herbicidal rate of 5% or less (almost no effect))
Blackgrass [25]
  Herbicidal effect by foliage application, J: blackgrass: 0 (Herbicidal rate of 5% or less (almost no effect))
Lambsquarters [13]
  Herbicidal effect by soil treatment, O: lambsquarters: 0 (Herbicidal rate of 5% or less (almost no effect))
